Literature values as cited in US8668932B2 (priority 2003, dated 2014).

What was measured:
[1] = test system: histaminergic receptors
[2] = not given; remark: listed apart in the source
[3] = test system: monoamine oxidase
[4] = test system: dopamine reuptake
[5] = for elimination half-life (T½): in vivo
[6] = test system: neuronal norepinephrine reuptake
[7] = test system: alpha-1 adrenergic receptors
[8] = test system: neuronal serotonin reuptake

SMILES | affinity for histaminergic receptors [1] | pKa | plasma protein binding [2] | inhibition of monoamine oxidase [3] | inhibition of dopamine reuptake [4] | elimination half-life (T½) [5] [h] | absolute bioavailability ([5]; oral) | time to steady-state concentrations ([5]; oral multiple dose therapy) | fraction of dose absorbed ([5]; single oral dose, mass balance studies) | inhibition of neuronal norepinephrine reuptake [6] | affinity for alpha-1 adrenergic receptors [7] | inhibition of neuronal serotonin reuptake [8]
COc1ccc(C(CN(C)C)C2(O)CCCCC2)cc1.Cl (racemic) [venlafaxine, (R/S)-1-[2-(dimethylamino)-1-(4-methoxyphenyl)ethyl]cyclohexanol hydrochloride] | no significant affinity | 9.4 | approximately 30% | does not inhibit | weak inhibitors | 5 ± 2 | about 45% | three | at least 92% | potent inhibitors | no significant affinity | –
CN(C)CC(c1ccc(O)cc1)C1(O)CCCCC1 (stereo not drawn) [ODV, O-desmethylvenlafaxine] | – | – | – | – | weak inhibitors | 11 ± 2 | – | – | – | potent inhibitors | – | potent inhibitors
